The values that follow come from US5705487A, “Antithrombotic agents” (priority 1995, dated 1998).

Counter-ions that a name gives are not always drawn. Bounds are passed on as bounds.

The target of series [1] is Human Thrombin (Homo sapiens, UniProt P00734). The series can be described thus: Inhibition of the amidase activity of thrombin (Kass). The following applies: chromogenic substrate N-benzoyl-Phe-Val-Arg-p-nitroanilide; mean over range of concentrations. Type of series: biochemical.
Description: The 150 μL of an aqueous solution of the chromogenic substrate (at 0.25 mg/mL) are added and the rates of hydrolysis of the substrate are measured by monitoring the reactions at 405 nm for the release of p-nitroaniline. Standard curves are constructed by plotting free thrombin concentration against hydrolysis rate. […] The amount of free inhibitor in each assay is calculated by subtracting the number of moles of bound thrombin from the number of moles of added inhibitor (test compound).
The Kass value is the hypothetical equilibrium constant for the reaction between thrombin and the test compound (I).
Kass is calculated for a range of concentrations of test compounds and the mean value is reported in units of liter per mole.
The target of series [2] is T1, factor Xa (Homo sapiens, UniProt P00742).
T1 construct: Human factors X, Xa, IXa, XIa, and XIIa are purchased; purchased Enzyme Research Laboratories, South Bend, Ind
Description: Kass, factor Xa chromogenic substrate assay. To be noted: substrate N-Benzoyl-Ile-Glu-Gly-Arg-p-nitroanilide. Type of series: biochemical.
Description: (§2) By substantially following the procedures described above for human thrombin, and using other human blood coagulation system serine proteases and proteases of the fibrinolytic system with the appropriate chromogenic substrates, identified below, selectivity of the compounds of the present invention with respect to the coagulation factor serine proteases and with respect to the fibrinolytic system serine proteases are evaluated as well as their substantial lack of interference with serine proteases of the fibrinolytic system.
Chromogenic substrates: N-Benzoyl-Ile-Glu-Gly-Arg-p-nitroanilide (for factor Xa); N-Cbz-D-Arg-Gly-Arg-p-nitroanilide (for factor IXa assay as the factor Xa substrate); Pyroglutamyl-Pro-Arg-p-nitroanilide (for Factor XIa and for aPC); H-D-Pro-Phe-Arg-p-nitroanilide (for factor XIIa); and Pyroglutamyl-Gly-Arg-p-nitroanilide (for urokinase); are purchased from KabiVirum, Stockholm, Sweden, or from Midwest Biotech, Fishers, Ind. Bovine trypsin is purchased from Worthington Biochemicals, Freehold, N.J., and human plasma kallikrein from Kabi Vitrum, Stockholm, Sweden. […] N-Benzoyl-Phe-Val-Arg-p-nitroanilide, the substrate for human thrombin and for trypsin, is synthesized according to procedures described above for the compounds of the present invention, using known methods of peptide coupling from commercially available reactants or purchased from Midwest Biotech, Fishers, Ind.

Series [3] deals with T2, Bovine trypsin (Bos taurus, UniProt P00760).
T2 construct: Bovine trypsin is purchased from Worthington Biochemicals; purchased Worthington Biochemicals, Freehold, N.J
T2 sequence (P00760 24-246): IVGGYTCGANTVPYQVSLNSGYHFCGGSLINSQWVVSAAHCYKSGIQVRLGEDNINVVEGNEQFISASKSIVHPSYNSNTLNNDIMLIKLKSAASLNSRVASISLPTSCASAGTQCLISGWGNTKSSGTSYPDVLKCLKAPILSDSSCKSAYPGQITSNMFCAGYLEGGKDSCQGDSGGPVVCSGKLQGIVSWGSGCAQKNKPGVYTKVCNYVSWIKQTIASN
The series can be described thus: Kass, trypsin chromogenic substrate assay. It is filed as biochemical. The following applies: substrate N-Benzoyl-Phe-Val-Arg-p-nitroanilide.

Series [4] has as its target T3, Human plasmin (Homo sapiens, UniProt P00747).
T3 construct: Human plasmin is purchased from Boehringer Mannheim; purchased Boehringer Mannheim, Indianapolis, Ind
The series can be described thus: Kass, plasmin chromogenic substrate assay. Type of series: biochemical. To be noted: substrate H-D-Val-Leu-Lys-p-nitroanilide.
Description: as §2
(§3) Human plasmin is purchased from Boehringer Mannheim, Indianapolis, Ind.; nt-PA is purchased as single chain activity reference from American Diagnostica, Greenwich, Conn.; modified-t-PA6 (mt-PA6) is prepared at Eli Lilly and Company by procedure known in the art (See, Burck, et al., J. Biol. Chem., 265, 5120-5177 (1990). Plasmin chromogenic substrate H-D-Val-Leu-Lys-p-nitroanilide and tissue plasminogen activator (t-PA) substrate H-D-Ile-Pro-Arg-p-nitroanilide are purchased from Kabi Vitrum, Stockholm, Sweden.

The target in series [5] is T4, t-PA (Homo sapiens, UniProt P00750).
T4 construct: purchased American Diagnostica, Greenwich, Conn
Description: Kass, t-PA chromogenic substrate assay. Type of series: biochemical. To be noted: substrate H-D-Ile-Pro-Arg-p-nitroanilide.
Description: as §2, §3

The test system of series [6] is Human Plasma. Description: Human plasma anticoagulation, thrombin time (TT). It is filed as biochemical. The following applies: concentration required to double the clotting time. The procedure, abridged:
(§1)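 Values are concentrations estimated by linear extrapolation to double the clotting time in human plasma containing test compound across a wide range. Thrombin time was triggered with bovine thrombin at 10 NIH units/mL plus saline, and prothrombin time with Thromboplastin-C plus saline. For APTT, plasma sat with Actin reagent for 120 seconds before 0.02M CaCl2.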

In series [7] the test system is Human Plasma. Description: Human plasma anticoagulation, activated partial thromboplastin time (APTT). It is filed as biochemical. The following applies: concentration required to double the clotting time. Summed up: as §1
For series [8], the system named is Human Plasma. The series can be described thus: Human plasma anticoagulation, prothrombin time (PT). It is filed as biochemical. To be noted: concentration required to double the clotting time. The procedure, abridged: as §1
Series [9] can be described thus: Index of bioavailability (% relative activity from plasma TT, oral vs i.v.). Type of series: in vivo, rat. To be noted: AUC of plasma TT time course, p.o. vs i.v. bolus, dose adjusted. Here is the method:
Parke Davis) at 37° C. […] Assays are done in duplicate and averaged. […] Each sample population represented alternating sequential time points.

The conditions of series [10]: Simoons et al., Circulation, 90, I-231 (1994); cited from earlier work.
Series [11] is described as follows: Arterio-Venous shunt model. It is filed as in vivo, rat. To be noted: during infusion reducing thrombus weight to approximately 20% of control. The protocol: The left jugular vein and right carotid artery are cannulated with 20 cm lengths of polyethylene PE 60 tubing. A 6 cm center section of larger tubing (PE 190) with a cotton thread (5 cm) in the lumen, is friction fitted between the longer sections to complete the arterio-venous shunt circuit. Blood circulated through the shunt for 15 minutes before the thread is carefully removed and weighed. The weight of a wet thread is subtracted from the total weight of the thread and thrombus (see J. R. Smith, Br. J. Pharmacol., 77,29 (1982)).
Assays are done in duplicate and averaged.

T1 sequence (P00742 235-488 limits assumed): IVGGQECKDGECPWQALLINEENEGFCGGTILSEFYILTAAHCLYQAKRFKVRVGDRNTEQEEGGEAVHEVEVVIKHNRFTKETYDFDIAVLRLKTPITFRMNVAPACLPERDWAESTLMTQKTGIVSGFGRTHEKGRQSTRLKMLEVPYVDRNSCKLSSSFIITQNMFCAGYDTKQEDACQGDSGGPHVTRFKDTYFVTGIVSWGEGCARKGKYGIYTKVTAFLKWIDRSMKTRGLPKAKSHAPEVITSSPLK
T1 sequence (P00742 41-179 partner limits assumed): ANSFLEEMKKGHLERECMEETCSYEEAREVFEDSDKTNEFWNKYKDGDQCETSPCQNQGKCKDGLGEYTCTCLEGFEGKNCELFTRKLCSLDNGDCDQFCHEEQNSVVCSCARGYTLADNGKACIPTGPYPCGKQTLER
T4 sequence (P00750 36-562): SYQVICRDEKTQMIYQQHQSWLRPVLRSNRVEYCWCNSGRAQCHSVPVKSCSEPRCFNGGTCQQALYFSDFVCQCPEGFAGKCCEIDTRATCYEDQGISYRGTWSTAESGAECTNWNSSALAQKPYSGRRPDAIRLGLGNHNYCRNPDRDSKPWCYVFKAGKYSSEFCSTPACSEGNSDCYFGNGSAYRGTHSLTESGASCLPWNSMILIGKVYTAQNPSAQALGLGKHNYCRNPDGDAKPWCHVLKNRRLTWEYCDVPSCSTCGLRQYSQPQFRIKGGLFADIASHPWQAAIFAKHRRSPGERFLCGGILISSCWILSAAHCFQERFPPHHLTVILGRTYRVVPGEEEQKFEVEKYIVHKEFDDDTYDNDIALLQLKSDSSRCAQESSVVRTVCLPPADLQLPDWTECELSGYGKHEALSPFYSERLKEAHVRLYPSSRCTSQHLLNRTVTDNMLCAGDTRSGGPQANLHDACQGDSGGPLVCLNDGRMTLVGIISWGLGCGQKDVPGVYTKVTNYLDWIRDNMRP
T3 sequence (P00747 581-810 limits assumed): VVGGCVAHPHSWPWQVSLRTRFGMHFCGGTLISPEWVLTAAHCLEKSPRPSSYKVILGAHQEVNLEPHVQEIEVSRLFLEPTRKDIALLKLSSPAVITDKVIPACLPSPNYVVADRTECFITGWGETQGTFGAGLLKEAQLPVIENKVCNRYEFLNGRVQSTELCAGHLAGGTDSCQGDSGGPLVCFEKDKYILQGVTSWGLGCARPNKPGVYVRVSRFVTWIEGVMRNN
T3 sequence (P00747 97-580 partner limits assumed): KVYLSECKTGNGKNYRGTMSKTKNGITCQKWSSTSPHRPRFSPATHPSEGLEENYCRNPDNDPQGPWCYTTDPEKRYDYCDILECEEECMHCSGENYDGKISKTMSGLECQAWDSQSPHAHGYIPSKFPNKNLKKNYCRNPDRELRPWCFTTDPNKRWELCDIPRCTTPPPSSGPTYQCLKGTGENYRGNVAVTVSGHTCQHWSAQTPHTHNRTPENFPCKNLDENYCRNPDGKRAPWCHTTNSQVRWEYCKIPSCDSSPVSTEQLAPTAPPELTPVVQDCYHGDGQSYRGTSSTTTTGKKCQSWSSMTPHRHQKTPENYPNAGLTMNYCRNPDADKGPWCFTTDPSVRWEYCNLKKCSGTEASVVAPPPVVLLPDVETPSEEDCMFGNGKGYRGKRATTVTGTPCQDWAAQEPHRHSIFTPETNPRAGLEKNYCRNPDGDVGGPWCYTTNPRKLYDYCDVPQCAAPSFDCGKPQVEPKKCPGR

As for `Cl.Cl.Cl.N=C(N)c1ccc(CNC(=O)[C@@H]2C[C@@H]3CCCC[C@@H]3N2C(=O)[C@H]2CCCCN2)cc1` (relative stereo) [Example 20, D-hPro-Ohi-p-NHCH2 C6 H4 C(NH)NH2.3HCl], in [1], the “Kass × 10^6 (L/mole) Human Thrombin” value is given as 10 × 10^6 L/mole. Also, the “Kass × 10^6 (L/mole) Xa” value in [2] was 0.10 × 10^6 L/mole. In series [3], the “Kass × 10^6 (L/mole) Trypsin” value was 19 × 10^6 L/mole. Further, the “Kass × 10^6 (L/mole) Plasmin” value in series [4] is listed as 0.10 × 10^6 L/mole. In addition, in series [5], the “Kass × 10^6 (L/mole) t-PA” value is 0.0077 × 10^6 L/mole. Further, the “Human Plasma Anticoagulation 2x Clotting time TT” value in series [6] is 62 ng/mL. Moreover, the “Human Plasma Anticoagulation 2x Clotting time APTT” value in series [7] was determined as 550 ng/mL. Also, the “Human Plasma Anticoagulation 2x Clotting time PT” value in series [8] worked out at 600 ng/mL. The “% oral/i.v. activity (Rat)” value in series [9] is listed as 23%.
Turning to `CN[C@H](Cc1ccccc1)C(=O)N1CCC[C@H]1C(=O)N[C@H](C=O)CCCNC(=N)N.O=S(=O)(O)O` [D-MePhe-Pro-Arg-H sulfate], the anticoagulant in man result in [10] was “is an anticoagulant in man”.
Consider `Cl.N=C(N)c1ccc(CNC(=O)[C@@H]2CCCN2C(=O)[C@@H](CC2CCCCC2)NCC(=O)O)cc1` [Example 48, HOOCCH2 -D-Cha-Pro-p-NHCH2 C6 H4 C(NH)NH2.HCl], for which the “Human Plasma Anticoagulation 2x Clotting time TT” value in [6] is 2. ng/mL. The PTT extended result in [11] is “about 120 % of control”.
For the compound `CCS(=O)(=O)N[C@H](Cc1ccccc1)C(=O)N1CCC[C@H]1C(=O)NCCCCN=C(N)N.Cl` [Example 1, EtSO2 -D-Phe-Pro-Agm.HCl], the “% oral/i.v. activity (Rat)” value in [9] worked out at 8%.
As to `CCS(=O)(=O)N[C@H](Cc1ccccc1)C(=O)N1CCC[C@H]1C(=O)NCCCc1ccc(C(=N)N)cc1` [Example 30, EtSO2 -D-Phe-Pro-p-NHCH2 CH2 CH2 -C6 H4 C(=NH)NH2.HCl], in series [1], the “Kass × 10^6 (L/mole) Human Thrombin” value was 0.55 × 10^6 L/mole. The “Kass × 10^6 (L/mole) Xa” value in series [2] is 0.02 × 10^6 L/mole. Further, the “Kass × 10^6 (L/mole) Trypsin” value in series [3] is on record as 0.03 × 10^6 L/mole. Also, the “Kass × 10^6 (L/mole) Plasmin” value in series [4] is reported as < 0.001 × 10^6 L/mole. Besides, the “Kass × 10^6 (L/mole) t-PA” value in series [5] is < 0.001 × 10^6 L/mole. In [6], the “Human Plasma Anticoagulation 2x Clotting time TT” value is given as 1,000 ng/mL. The “Human Plasma Anticoagulation 2x Clotting time APTT” value in [7] is reported as 14,000 ng/mL. The “Human Plasma Anticoagulation 2x Clotting time PT” value in series [8] is recorded as 14,400 ng/mL.
Regarding `Cl.N=C(N)c1cccc(CNC(=O)[C@@H]2CCCN2C(=O)[C@H](N)Cc2ccccc2)c1` [Example 16, D-Phe-Pro-m-NHCH2 C6 H4 C(NH)NH2.0.75HCl], the “Kass × 10^6 (L/mole) Human Thrombin” value in series [1] is 0.97 × 10^6 L/mole. Also, the “Kass × 10^6 (L/mole) Xa” value in series [2] was 0.0051 × 10^6 L/mole. In addition, the “Kass × 10^6 (L/mole) Trypsin” value in series [3] was 0.02 × 10^6 L/mole. Also, the “Kass × 10^6 (L/mole) Plasmin” value in series [4] was 0.0017 × 10^6 L/mole. In [5], the “Kass × 10^6 (L/mole) t-PA” value is given as 0.0012 × 10^6 L/mole. In addition, the “Human Plasma Anticoagulation 2x Clotting time TT” value in series [6] stood at 650 ng/mL. Also, in series [7], the “Human Plasma Anticoagulation 2x Clotting time APTT” value is given as 8,600 ng/mL. In addition, in [8], the “Human Plasma Anticoagulation 2x Clotting time PT” value is on record as 8,500 ng/mL.
In the case of `N=C(N)c1ccc(CNC(=O)[C@@H]2C[C@@H]3CCCC[C@@H]3N2C(=O)[C@H]2C[C@H]3CCCC[C@H]3CN2)cc1` (relative stereo) [Example 43, D-3-Piq-cis-Ohi-p-NHCH2 C6 H4 C(NH)NH2.2HCl], in series [1], the “Kass × 10^6 (L/mole) Human Thrombin” value was 1.4 × 10^6 L/mole. In series [2], the “Kass × 10^6 (L/mole) Xa” value is reported as 0.05 × 10^6 L/mole. The “Kass × 10^6 (L/mole) Trypsin” value in [3] is 100. × 10^6 L/mole. For the same compound, the “Kass × 10^6 (L/mole) Plasmin” value in series [4] is reported as 0.30 × 10^6 L/mole. Also, the “Kass × 10^6 (L/mole) t-PA” value in series [5] is recorded as 0.01 × 10^6 L/mole. Also, the “Human Plasma Anticoagulation 2x Clotting time TT” value in series [6] worked out at 280 ng/mL. Further, in series [7], the “Human Plasma Anticoagulation 2x Clotting time APTT” value was 1,100 ng/mL. For the same compound, the “Human Plasma Anticoagulation 2x Clotting time PT” value in [8] came to 930 ng/mL.
Turning to “D-hPro-N(PhCH2 CH2)Gly-p-NHCH2 -C6 H4 C(NH)NH2.2HCl [Example 21]”, the “Kass × 10^6 (L/mole) Human Thrombin” value in series [1] is given as 3.6 × 10^6 L/mole. In addition, in series [2], the “Kass × 10^6 (L/mole) Xa” value was 0.62 × 10^6 L/mole. The “Kass × 10^6 (L/mole) Trypsin” value in series [3] is listed as 0.96 × 10^6 L/mole. Besides, the “Kass × 10^6 (L/mole) Plasmin” value in series [4] is on record as 0.031 × 10^6 L/mole. Besides, the “Kass × 10^6 (L/mole) t-PA” value in [5] is 0.002 × 10^6 L/mole. In addition, the “Human Plasma Anticoagulation 2x Clotting time TT” value in series [6] stood at 160 ng/mL. Further, the “Human Plasma Anticoagulation 2x Clotting time APTT” value in series [7] was 2,000 ng/mL. For the same compound, the “Human Plasma Anticoagulation 2x Clotting time PT” value in [8] was 1,000 ng/mL.
Take `Cl.N=C(N)c1ccc(CNC(=O)[C@@H]2C[C@@H]3CCCC[C@@H]3N2C(=O)[C@@H](CC2CCCCC2)NCC(=O)O)cc1` (relative stereo) [Example 49, HOOCCH2 -D-Cha-cis-Ohi-p-NHCH2 C6 H4 C(NH)NH2.HCl]: the “Kass × 10^6 (L/mole) Human Thrombin” value in series [1] is 400 × 10^6 L/mole. Moreover, the “Kass × 10^6 (L/mole) Xa” value in series [2] is 3.4 × 10^6 L/mole. The “Kass × 10^6 (L/mole) Trypsin” value in series [3] is 940. × 10^6 L/mole. In addition, in series [4], the “Kass × 10^6 (L/mole) Plasmin” value was 0.84 × 10^6 L/mole. Besides, the “Kass × 10^6 (L/mole) t-PA” value in series [5] is given as 0.04 × 10^6 L/mole. In addition, the “Human Plasma Anticoagulation 2x Clotting time TT” value in [6] came out at 5 ng/mL. Moreover, the “Human Plasma Anticoagulation 2x Clotting time APTT” value in series [7] was 130 ng/mL. For the same compound, the “Human Plasma Anticoagulation 2x Clotting time PT” value in series [8] came to 130 ng/mL.
